Reference: the NIST ThermoML archive (doi:10.1016/j.jct.2014.01.006)
± gives the expanded uncertainty stated by the source.

Tests used:
[1] = Molar enthalpy of transition or fusion; details: Crystal; Adiabatic calorimetry
[2] = for molar entropy: Vacuum adiabatic calorimetry; for mass density: Vibrating tube method; for vapor or sublimation pressure: Ebulliometric method (Recirculating still)
[3] = molar heat capacity at saturation pressure; details: Crystal, Vacuum adiabatic calorimetry

c1ccc(-c2cccc3ccccc23)cc1 [1-phenylnaphthalene]
Details	Molar enthalpy of transition or fusion [kcal/mol]
[1]	3.716 ± 0.00406

[2]
Details	Glass transition temperature [°C]	Triple point temperature [K]	mass density [kg/m3]	molar entropy [J/K/mol]	vapor or sublimation pressure [kPa]
5 K, Crystal	–	–	–	0.1746 ± 0.017	–
10 K, Crystal	–	–	–	1.372 ± 0.025	–
20 K, Crystal	–	–	–	7.849 ± 0.083	–
30 K, Crystal	–	–	–	17.67 ± 0.16	–
40 K, Crystal	–	–	–	28.64 ± 0.12	–
50 K, Crystal	–	–	–	39.72 ± 0.14	–
60 K, Crystal	–	–	–	50.49 ± 0.17	–
70 K, Crystal	–	–	–	60.84 ± 0.19	–
80 K, Crystal	–	–	–	70.76 ± 0.22	–
90 K, Crystal	–	–	–	80.33 ± 0.32	–
100 K, Crystal	–	–	–	89.56 ± 0.34	–
120 K, Crystal	–	–	–	107.24 ± 0.37	–
140 K, Crystal	–	–	–	124.19 ± 0.39	–
160 K, Crystal	–	–	–	140.69 ± 0.42	–
180 K, Crystal	–	–	–	156.93 ± 0.45	–
200 K, Crystal	–	–	–	173.03 ± 0.47	–
220 K, Crystal	–	–	–	189.11 ± 0.5	–
240 K, Crystal	–	–	–	205.23 ± 0.53	–
260 K, Crystal	–	–	–	221.4 ± 0.56	–
280 K, Crystal	–	–	–	237.64 ± 0.58	–
297.47 K, Crystal	–	–	–	251.92 ± 0.61	–
297.47 K, Liquid	–	–	–	304.2 ± 0.71	–
298.15 K, Liquid	–	–	–	304.91 ± 0.71	–
300 K, Liquid	–	–	–	306.83 ± 0.71	–
320 K, Liquid	–	–	–	327.32 ± 0.75	–
323.14 K, Liquid	–	–	1082.7 ± 1.1	–	–
340 K, Liquid	–	–	–	347.28 ± 0.78	–
348.13 K, Liquid	–	–	1064.6 ± 1.1	–	–
360 K, Liquid	–	–	–	366.78 ± 0.81	–
373.12 K, Liquid	–	–	1045.5 ± 1	–	–
375 K, Liquid	–	–	–	–	0.0218 ± 0.0077
380 K, Liquid	–	–	–	385.86 ± 0.85	–
385 K, Liquid	–	–	–	–	0.0404 ± 0.0077
395 K, Liquid	–	–	–	–	0.0732 ± 0.0078
400 K, Liquid	–	–	–	404.57 ± 0.88	–
405 K, Liquid	–	–	–	–	0.1265 ± 0.0078
415 K, Liquid	–	–	–	–	0.2126 ± 0.0078
420 K, Liquid	–	–	–	422.96 ± 0.91	–
423.11 K, Liquid	–	–	1006.3 ± 1	–	–
425.01 K, Liquid	–	–	–	–	0.3464 ± 0.0078
434.99 K, Liquid	–	–	–	–	0.549 ± 0.0078
440 K, Liquid	–	–	–	441.01 ± 0.95	–
445 K, Liquid	–	–	–	–	0.849 ± 0.0078
448.11 K, Liquid	–	–	986.7 ± 1	–	–
455 K, Liquid	–	–	–	–	1.283 ± 0.0079
460 K, Liquid	–	–	–	458.69 ± 0.98	–
465 K, Liquid	–	–	–	–	1.896 ± 0.008
466.36 K, Liquid	–	–	–	–	2 ± 0.0081
473.11 K, Liquid	–	–	967 ± 1	–	–
475 K, Liquid	–	–	–	–	2.747 ± 0.0082
480 K, Liquid	–	–	–	476.01 ± 1	3.281 ± 0.0084
485.69 K, Liquid	–	–	–	–	4.002 ± 0.0086
494.31 K, Liquid	–	–	–	–	5.336 ± 0.009
498.11 K, Liquid	–	–	945 ± 1	–	–
500 K, Liquid	–	–	–	493.05 ± 1	–
507.13 K, Liquid	–	–	–	–	8.005 ± 0.0097
516.73 K, Liquid	–	–	–	–	10.67 ± 0.011
520 K, Liquid	–	–	–	509.81 ± 1.1	–
523.11 K, Liquid	–	–	921.4 ± 0.9	–	–
524.52 K, Liquid	–	–	–	–	13.34 ± 0.012
532.53 K, Liquid	–	–	–	–	16.64 ± 0.013
539.27 K, Liquid	–	–	–	–	19.93 ± 0.015
540 K, Liquid	–	–	–	526.33 ± 1.1	–
548.1 K, Liquid	–	–	–	–	25.01 ± 0.017
548.11 K, Liquid	–	–	–	–	25.02 ± 0.016
557 K, Liquid	–	–	–	–	31.18 ± 0.019
560 K, Liquid	–	–	–	542.62 ± 1.1	–
565.96 K, Liquid	–	–	–	–	38.57 ± 0.023
574.94 K, Liquid	–	–	–	–	47.36 ± 0.026
580 K, Liquid	–	–	–	558.7 ± 1.2	–
584.02 K, Liquid	–	–	–	–	57.82 ± 0.03
593.13 K, Liquid	–	–	–	–	70.11 ± 0.035
600 K, Liquid	–	–	–	574.57 ± 1.2	–
602.33 K, Liquid	–	–	–	–	84.55 ± 0.041
611.56 K, Liquid	–	–	–	–	101.34 ± 0.05
620 K, Liquid	–	–	–	590.26 ± 1.2	–
620.85 K, Liquid	–	–	–	–	120.8 ± 0.05
630.2 K, Liquid	–	–	–	–	143.27 ± 0.06
640 K, Liquid	–	–	–	605.78 ± 1.2	–
650 K, Liquid	–	–	–	613.47 ± 1.3	–
Crystal, Adiabatic calorimetry	–	297.47 ± 0.039	–	–	–
Glass, Adiabatic calorimetry	-53 ± 1	–	–	–	–

[3]
Details	molar heat capacity [J/K/mol]
4.666 K	0.4324 ± 0.017
5 K	0.5238 ± 0.025
5.509 K	0.6901 ± 0.025
6.425 K	1.131 ± 0.042
7.372 K	1.671 ± 0.058
8.352 K	2.37 ± 0.075
9.357 K	3.243 ± 0.1
10 K	3.899 ± 0.042
10.42 K	4.348 ± 0.042
11.58 K	5.512 ± 0.05
12.87 K	7.134 ± 0.058
14.3 K	8.921 ± 0.075
15.89 K	11.19 ± 0.083
17.68 K	13.76 ± 0.1
19.66 K	16.7 ± 0.12
20 K	17.2 ± 0.12
21.86 K	20.01 ± 0.13
24.3 K	23.71 ± 0.15
26.97 K	27.69 ± 0.17
29.93 K	31.88 ± 0.18
30 K	31.97 ± 0.17
33.23 K	36.31 ± 0.091
36.92 K	40.94 ± 0.1
40 K	44.47 ± 0.11
41.05 K	45.63 ± 0.11
45.65 K	50.63 ± 0.12
50 K	54.82 ± 0.12
50.77 K	55.5 ± 0.12
56.48 K	60.59 ± 0.13
57.01 K	60.79 ± 0.13
